As usually defined, the EC50 is the concentration at which the effect is half-maximal.

Test [1] deals with EP4 Receptor (Oryctolagus cuniculus, UniProt Q28691). As to the kind of experiment: Magnus experiment using rabbit saphenous vein (relaxation of 40 mM KCl contraction). The class given is cell-based. The method, then: Magnus Experiment Using Rabbit Saphenous Vein
Investigation of agonistic activity to EP4 was carried out by an improved method of the method of Lydford et al. (S. J. Lydford et al., Br. J. Pharmacol. 117, 13-20 (1996)) using rabbit saphenous veins. That is, each rabbit was deeply anesthetized by administering pentobarbital (50 mg/kg) to auricular vein, and then sacrificed by bleeding by cutting carotid artery. Saphenous vein was carefully but quickly removed and transferred into Krebs solution (NaCl 118.1 mM, KCl 5.31 mM, MgSO4 1.01 mM, CaCl2 3.52 mM, NaH2PO4 1.09 mM, NaHCO3 25.0 mM, glucose 9.99 mM, pH 7.4) which was preliminarily saturated with 95% O2+5% CO2 mixed gas. The connective tissue and the fatty tissue of each saphenous vein were isolated using a scissors for ophthalmology to prepare a ring preparation with a width of about 4 mm. This ring preparation was mounted on a hook for blood vessels, and then suspended in a Magnus tube filled with Krebs solution aerated with 95% O2+5% CO2 mixed gas and kept at 37° C. The isometric tension of each blood vessel was recorded on a recorder through an isometric transducer. To each blood vessel, a base tension of 1.0 g was applied and the blood vessel tissue was stabilized for about 30 minutes until the baseline became stabilized. After the baseline became stable, the blood vessel was contracted with 40 mM KCl, and the shrinkage and washing were repeated until the contraction became stable. After the contraction with KCl became stable, a thromboxane antagonist S-145 (1000 nM) was applied previously and then cumulative application experiments of Compounds 1 to 7 were carried out. More specifically, the reactivity to PGE2 which was a positive control drug was measured, and after washing, the action of each compound was studied. The effectiveness of each drug was expressed in terms of the concentration (EC50) at which the rate of relaxation of the test drug to the contraction by 40 mM KCl was 50%. EC50 value was calculated by plotting logarithm of the concentration of each drug along the abscissa and plotting the rate of relaxation with respect to the contraction by 40 mM KCl along the ordinate, and by determining the concentration at which the height of contraction was 50% based on the linear area of the concentration-reaction curve in each experiment. [drawing 39]

In test [2] the test system is epilated rabbit models. Nature of the test: Hair-growth/generation test in young epilated rabbits (8 weeks old), subcutaneous, once a day from 2nd to 7th day. As to conditions: young rabbits 8 weeks old. It counts as in vivo, New Zealand White rabbits. The protocol:
(§1) Hair-Growing or Hair-Generating Action
The test was carried out as follows. The hair on the back of each rabbit was removed and evacream was applied for a short time to the back so as to epilate the back. After wiping the epilated region with water, test compound was subcutaneously administered to the back at a dose of 0.25 ml/kg once a day from the second day to 7th day after epilation. The length of the hair was measured.

Test [3] addresses T1, human PGE2 receptor subtype EP4 (Homo sapiens, UniProt P35408).
T1 construct: expressed in transfected cells; host or cells: COS-7 cells, transient expression; membrane specimens
Nature of the test: Receptor binding experiment using PGE2 receptor subtype-expressing cells (3H-PGE2 displacement, membrane fractions). The settings on record: human PGE2 receptor subtypes EP2, EP3, EP4. The method, then:
Receptor Binding Experiment Using PGE2 Receptor Subtype-expressing Cells
The compound of the Formula (I) described above was tested for its selective binding activity to EP4 receptor by using PGE2 receptor subtype-expressing cells.
According to the reported method (Breyer,R. M. et al., J. Biol. Chem. 269,6163-6169(1994)), cloned human PGE2 receptor subtypes (EP3 and EP4) were transiently expressed by COS-7 cells. EP2 was stably expressed by CHO cells. These cells were prepared into membrane specimens. Each of the prepared membrane fractions (10 μg/tube) was incubated with a reaction solution containing ^3H—PGE2 at 30° C. for 1 hour. The reaction was terminated by iced buffer (10 mM MES(pH 6.0), 10 mM MgCl2, 1 mM EDTA), and the resultant was subjected to filtration by means of suction under reduced pressure to trap the bound ^3H-PGE2 on a glass filter (GF/C), followed by measurement of the radioactivity with a liquid scintillation counter.
The Kd value was determined from Scatchard plot according to the conventional method. Non-specific binding was determined in terms of the amount of bound radioactivity in the presence of an excess amount (5 μM) of non-labeled PGE2. […]
The dissociation constant Ki (nM) of Compound 1 was calculated according to the following equation: […]

Test [4] deals with epilated rabbit models. As to the kind of experiment: Hair-growth/generation test in epilated rabbits, subcutaneous, once a day from 2nd to 20th day. The settings on record: for Length of New Hair (mm) / Rate of Hair-generated Area (%): mean ± standard error. The class given is in vivo. The protocol:
as §1
The test was carried out as follows. The hair on the back of each rabbit was removed with an electric clipper and evacream was applied for a short time to the back so as to epilate the back. After wiping the epilated region with water, test compound was subcutaneously administered to the back at a dose of 0.25 ml/kg (dissolved in 0.9% sodium chloride solution) once a day from the second day to 20th day after epilation. The state of generation of hair was observed and the length of the hair was measured.

[5] abbreviates: relaxation of contraction by 40 mM KCl, thromboxane antagonist S-145 (1000 nM) present, read-out: EC50 (nM), agonistic activity to EP4 receptor in rabbit saphenous vein relaxation reaction.

Like-named read-outs stand apart in the source and are kept apart here.

Chain of EP4 Receptor (Q28691 whole entry): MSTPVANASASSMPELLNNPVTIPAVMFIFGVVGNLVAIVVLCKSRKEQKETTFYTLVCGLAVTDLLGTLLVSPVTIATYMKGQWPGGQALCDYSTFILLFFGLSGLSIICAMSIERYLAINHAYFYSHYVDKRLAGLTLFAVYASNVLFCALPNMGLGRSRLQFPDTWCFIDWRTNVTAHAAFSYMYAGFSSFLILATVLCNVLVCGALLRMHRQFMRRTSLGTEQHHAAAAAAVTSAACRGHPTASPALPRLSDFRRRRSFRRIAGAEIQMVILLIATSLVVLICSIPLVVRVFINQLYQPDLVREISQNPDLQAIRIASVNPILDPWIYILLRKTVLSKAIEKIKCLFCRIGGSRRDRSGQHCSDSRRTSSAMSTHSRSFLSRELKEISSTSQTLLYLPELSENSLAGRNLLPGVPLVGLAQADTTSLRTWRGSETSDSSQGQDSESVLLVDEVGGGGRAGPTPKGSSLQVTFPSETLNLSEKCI
T1 sequence (P35408 whole entry): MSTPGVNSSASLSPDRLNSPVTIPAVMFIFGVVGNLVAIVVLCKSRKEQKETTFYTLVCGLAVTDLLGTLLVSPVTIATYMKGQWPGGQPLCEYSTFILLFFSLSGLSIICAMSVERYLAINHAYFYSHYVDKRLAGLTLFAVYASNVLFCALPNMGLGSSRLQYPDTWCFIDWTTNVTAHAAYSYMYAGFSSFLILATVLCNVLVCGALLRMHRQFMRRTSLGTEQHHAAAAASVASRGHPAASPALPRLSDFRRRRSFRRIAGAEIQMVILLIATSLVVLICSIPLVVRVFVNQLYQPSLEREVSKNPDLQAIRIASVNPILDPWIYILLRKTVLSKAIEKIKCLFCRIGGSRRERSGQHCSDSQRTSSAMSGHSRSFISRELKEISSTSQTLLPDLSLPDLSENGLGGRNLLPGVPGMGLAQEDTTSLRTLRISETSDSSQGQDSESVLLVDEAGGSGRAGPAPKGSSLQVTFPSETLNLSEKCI

Turning to `OC(C=CC1C(O)CC2Oc3c(CCc4nnn[nH]4)cccc3C21)CC1CCCCC1` (stereo not shown) [Compound 2], in test [1] (setting [5]), the EC50 is 3 nM. The “Length of New Hair (mm)” value in test [2] (0.03 mg/kg s.c., 7th day, mean ± standard error, p < 0.05 vs. control) is listed as 11.7 ± 0.5 mm. In test [2] (s.c. once a day), the “length of the new hair (in words)” value is on record as “increased”.

Regarding `O=C(O)CSc1cccc2c1OC1CC(O)C(C=CC(O)CC3CCCCC3)C21` (stereo not shown) [Compound 6], the 50% effective concentration (EC50) in test [1] (setting [5]) was determined as 33 nM.

Regarding `CC(C)(Cc1ccccc1)C(O)C=CC1C(O)CC2Oc3c(CCC(=O)O)cccc3C21` (stereo not shown) [Compound 4], the EC50 in test [1] was 7 nM.

`O=C(O)C=Cc1cccc2c1OC1CC(O)C(C=CC(O)CC3CCCCC3)C21` (stereo not shown) [Compound 3]: the concentration giving a half-maximal response (EC50) in test [1] came to 6 nM.

`CC(C)(C(O)C=CC1C(O)CC2Oc3c(OCC(=O)O)cccc3C21)C1CCCCC1` (stereo not shown) [Compound 5]: the half-maximal effective concentration (EC50) in test [1] (setting [5]) is 26 nM.

Regarding `O=C(O)CCc1cccc2c1O[C@H]1C[C@@H](O)[C@H](/C=C/[C@@H](O)CC3CCCCC3)[C@@H]21` [Compound 1], the “selectivity to EP4 receptor subtype (binding abilities to other receptor subtypes are low)” value in test [3] is on record as “high selectivity”. Further, in test [4] (0.03 mg/kg s.c., 20th day), the “Rate of Rabbits with 50% or More Hair-Generated Area” value is listed as 1/4, the “Length of New Hair (mm)” value was 6.0 ± 0.6 mm and the “Rate of Hair-generated Area (%)” value came to 15.8 ± 13.2%. The “Rate of Hair-generated Area (%)” value in test [4] (0.1 mg/kg s.c., 20th day) is recorded as 48.8 ± 13.6%. For the same compound, in test [4] (0.1 mg/kg s.c., 20th day, p < 0.05 vs. control), the “Length of New Hair (mm)” value is listed as 7.3 ± 0.5 mm. The “length of the new hair (in words)” value in test [4] (epilated rabbits, s.c. once a day) is “increased”. This compound yielded a concentration giving a half-maximal response (EC50) in test [1] of 6 nM.

In test [1], `O=C(O)CCc1cccc2c1OC1CC(O)C(C=CC(O)C(F)(F)C3CCCCC3)C21` (stereo not shown) [Compound 7] yielded a concentration giving a half-maximal response (EC50) of 2 nM.

The record behind these values is patent US20030083381A1, “Hair growth or hair formation controlling agents” (priority 2000, published 2003).
